These molecules were tested against T1, human C5a receptor (Homo sapiens, UniProt P21730) (assay: C5a receptor mediated calcium mobilization assay (Example 20)). Conditions: differentiated U937 cells, read-out: Ca2+ (Ki in the standard assay of C5a receptor mediated calcium mobilization).
T1 construct: endogenous in cells; host or cells: U937 cells differentiated with 1 mM dibutyryl cAMP
T1 sequence (P21730 1-350): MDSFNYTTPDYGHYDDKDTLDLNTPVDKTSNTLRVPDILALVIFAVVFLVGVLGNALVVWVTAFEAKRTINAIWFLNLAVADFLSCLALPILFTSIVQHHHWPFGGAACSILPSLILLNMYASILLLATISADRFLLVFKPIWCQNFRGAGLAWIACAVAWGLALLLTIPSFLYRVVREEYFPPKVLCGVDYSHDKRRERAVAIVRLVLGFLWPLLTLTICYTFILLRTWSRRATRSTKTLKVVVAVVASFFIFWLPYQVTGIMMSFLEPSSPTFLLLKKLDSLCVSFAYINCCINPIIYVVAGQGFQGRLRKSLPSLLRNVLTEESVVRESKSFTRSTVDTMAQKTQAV
Type: cell-based
How it was run: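 Differentiated U937 cells (dibutyryl cAMP, 48 h) loaded with Fluo-3 were pre-incubated 1 h with compound at 1 μM, then challenged with 0.3 nM (final) human recombinant C5a. Calcium response monitored by FLIPR fluorescence (Ex 480/Em 530 nm); antagonism defined as ≥2-fold decrease versus C5a alone.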

Compound	Ki
COc1cncc(CN(C(=O)[C@H](C)N2CCc3ccccc3[C@@H]2c2cccc3ccccc23)C2Cc3ccccc3C2)c1 [Compound 127, (2S)-N-(indan-2-yl)-N-[(5-methoxypyridin-3-yl)methyl]-2-[(1R)-1-(1-naphthyl)-3,4-dihydroisoquinolin-2(1H)-yl]propanamide]	< 1 µM
Cc1ccc(C2c3ccccc3CCN2CC(=O)N(Cc2ccccc2F)C2Cc3ccccc3C2)cc1F (centres unmarked) [Compound 61, N-(indan-2-yl)-N-(2-fluorobenzyl)-2-[1-(3-fluoro-4-methylphenyl)-3,4-dihydroisoquinolin-2(1H)-yl]acetamide]	< 1 µM
O=C(CN1CCc2ccccc2C1c1ccccc1-c1ccccc1)N(Cc1ccccc1F)C1Cc2ccccc2C1 (centres unmarked) [Compound 43, 2-[1-(1,1′-biphenyl-2-yl)-3,4-dihydroisoquinolin-2(1H)-yl]-N-(indan-2-yl)-N-(2-fluorobenzyl)acetamide]	< 1 µM
Cc1ccccc1[C@H]1c2ccccc2CCN1CC(=O)N(Cc1cccc(O)c1)C1Cc2ccccc2C1 [Compound 113, N-(indan-2-yl)-N-(3-hydroxybenzyl)-2-[(1S)-1-(2-methylphenyl)-3,4-dihydroisoquinolin-2(1H)-yl]acetamide]	< 1 µM
Cc1ccccc1C1c2ccccc2CCN1CC(=O)N(Cc1ccccc1F)C1Cc2ccccc2C1 (stereo in doubt) [Compound 28, N-(indan-2-yl)-N-(2-fluorobenzyl)-2-[(1S)-1-(2-methylphenyl)-3,4-dihydroisoquinolin-2(1H)-yl]acetamide]	< 1 µM
COc1cccc(CN(C(=O)[C@H](C)N2CCc3ccccc3[C@@H]2c2cccc3ccccc23)C2Cc3ccccc3C2)n1 [Compound 124, (2S)-N-(indan-2-yl)-N-[(6-methoxypyridin-2-yl)methyl]-2-[(1R)-1-(1-naphthyl)-3,4-dihydroisoquinolin-2(1H)-yl]propanamide]	< 1 µM
Cc1ccccc1[C@@H]1c2c(ccc(C)c2C)CCN1CC(=O)N(Cc1ccccc1F)C1Cc2ccccc2C1 (stereo in doubt) [Compound 73, N-(indan-2-yl)-2-[7,8-dimethyl-1-(2-methylphenyl)-3,4-dihydroisoquinolin-2(1H)-yl]-N-(2-fluorobenzyl)acetamide]	< 1 µM
Cc1ccc(F)c(C2c3ccccc3CCN2CC(=O)N(Cc2ccccc2F)C2Cc3ccccc3C2)c1 (centres unmarked) [Compound 66, N-(indan-2-yl)-N-(2-fluorobenzyl)-2-[1-(2-fluoro-5-methylphenyl)-3,4-dihydroisoquinolin-2(1H)-yl]acetamide]	< 1 µM
O=C(CN1CCc2ccccc2C1c1cc(F)ccc1C(F)(F)F)N(Cc1ccccc1F)C1Cc2ccccc2C1 (centres unmarked) [Compound 38, N-(indan-2-yl)-N-(2-fluorobenzyl)-2-[1-[5-fluoro-2-(trifluoromethyl)phenyl]-3,4-dihydroisoquinolin-2(1H)-yl]acetamide]	< 1 µM

Other lines, results leading:

Ki	Compound
< 1 µM	C[C@@H](C(=O)N(CCc1ccccc1F)Cc1ccc(O)cc1)N1CCc2ccccc2[C@@H]1c1ccccc1Cl [Compound 104, (2S)-2-[(1R)-1-(2-chlorophenyl)-3,4-dihydroisoquinolin-2(1H)-yl]-N-[2-(2-fluorophenyl)ethyl]-N-(4-hydroxybenzyl)propanamide]
< 1 µM	C[C@@H](C(=O)N(Cc1ccccc1)Cc1ccc(O)cc1Cl)N1CCc2ccccc2[C@@H]1c1ccccc1Br [Compound 77, (2S)-N-benzyl-2-[(1R)-1-(2-bromophenyl)-3,4-dihydroisoquinolin-2(1H)-yl]-N-(2-chloro-4-hydroxybenzyl)propanamide]
< 1 µM	Cc1ccc(Cl)c([C@H]2c3ccccc3CCN2[C@@H](C)C(=O)N(Cc2ccccc2F)C2Cc3ccccc3C2)c1 [Compound 84, (2S)-2-[(1R)-1-(2-chloro-5-methylphenyl)-3,4-dihydroisoquinolin-2(1H)-yl]-N-(indan-2-yl)-N-(2-fluorobenzyl)propanamide]
< 1 µM	C[C@@H](C(=O)N(Cc1ccccc1O)C1Cc2ccccc2C1)N1CCc2ccccc2[C@@H]1c1ccccc1Cl [Compound 90, (2S)-2-[(1R)-1-(2-chlorophenyl)-3,4-dihydroisoquinolin-2(1H)-yl]-N-(indan-2-yl)-N-(2-hydroxybenzyl)propanamide]
< 1 µM	Cc1cc(CN(C(=O)[C@H](C)N2CCc3ccccc3[C@@H]2c2ccccc2Cl)C2Cc3ccccc3C2)cc(C)c1O [Compound 106, (2S)-2-[(1R)-1-(2-chlorophenyl)-3,4-dihydroisoquinolin-2(1H)-yl]-N-(indan-2-yl)-N-(4-hydroxy-3,5-dimethylbenzyl)propanamide]

— US6777422B2, “Substituted tetrahydroisoquinolines as C5a receptor modulators” (Neurogen Corp., priority 2002, dated 2004)
